Structures can show the parent of a compound that is named as a salt.
Columns and labels:
[1] = test system: mouse colon cancer Colon-26 cell line; test: Treating Test Example 2: anti-tumor and life-prolongation effect, i.v. administration to Colon-26-transplanted CDF1 mice; format: in vivo
[2] = Treating Test Example 2: toxicity (body weight change, deaths) in treated CDF1 mice; details: 10 mg/kg
Text: In this experiment, the treatment was started on the 9th day after the tumor transplantation.

Q: With O=C1[O][Pt-2]2([NH2+]C3CCCC[C@H]3[NH2+]2)[O]C1=O (stereo partly shown) [oxaliplatin, oxalate (1,2-diaminocyclohexane)platinum (II)] as the compound, how does the “life-prolonging effect (survival)” value ([1]; doses 2, 4 or 6 mg/kg oxaliplatin) read?
A: little life-prolonging effect

Q: What about the “remarkable tumor growth-inhibiting effect” value ([1]; oxaliplatin up to 10 mg/kg, every third day, three times) of the same compound?
A: not observed

Q: What about the “body weight reduction to” value [2] of the same compound?
A: 80%

Q: What about the “deaths compared with untreated group (survival number)” value [2] of the same compound?
A: earlier deaths than the untreated group
